Experimental data taken from the supplement of paper PMC10307832.

Assays:
Assay in all cases: relative viability (nuclei count vs DMSO), 5 days (fraction); higher = more cells survive
[1] = compound: Cn1c(=O)n(-c2ccc(C(C)(C)C#N)cc2)c2c3cc(-c4cnc5ccccc5c4)ccc3ncc21 [Dactolisib] + NC(=O)Nc1cc(-c2cccc(F)c2)sc1C(=O)N[C@H]1CCCNC1 [AZD7762] (partner 0.2 µM)
How it was run: (§1)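 Relative viability was taken as the ratio of nuclei in treated wells to nuclei in vehicle wells. Lung cancer cell lines in 1536-well plates received compounds by pin tool one day after seeding, either one drug alone or a fixed anchor-drug dose plus five library-drug doses (not always all listed) in √10 steps. Nuclei were counted on 4× images after 5 days of treatment, and values are medians of duplicate plates.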

[2] = compound: Cn1c(=O)n(-c2ccc(C(C)(C)C#N)cc2)c2c3cc(-c4cnc5ccccc5c4)ccc3ncc21 [Dactolisib] + COc1cccc2cc(-c3nc([C@H]4CC[C@H](C(=O)O)CC4)n4ncnc(N)c34)[nH]c12 [OSI-027] (partner 0.5 µM)
How it was run: as §1

[3] = compound: C1CCC(CC1)N(CCNCCC2=C3C(=C(C=C2)O)NC(=O)CO3)C(=O)CCNCCC4=CC(=C(C=C4)Cl)Cl [AZ505] + CS(=O)(=O)CCNCc1ccc(-c2ccc3ncnc(Nc4ccc(OCc5cccc(F)c5)c(Cl)c4)c3c2)o1 [Lapatinib] (partner 2 µM)
How it was run: as §1

[4] = compound: C1CCC(CC1)N(CCNCCC2=C3C(=C(C=C2)O)NC(=O)CO3)C(=O)CCNCCC4=CC(=C(C=C4)Cl)Cl [AZ505] + COc1cc2c(Oc3ccc(NC(=O)C4(C(=O)Nc5ccc(F)cc5)CC4)cc3F)ccnc2cc1OCCCN1CCOCC1 [Foretinib] (partner 0.25 µM)
How it was run: as §1

| Cell Line | relative viability ([1]; first compound 0.002 µM) | relative viability ([1]; first compound 0.006325 µM) | relative viability ([1]; first compound 0.02 µM) | relative viability ([1]; first compound 0.06325 µM) | relative viability ([1]; first compound 0.2 µM) | relative viability ([2]; first compound 0.002 µM) | relative viability ([2]; first compound 0.006325 µM) | relative viability ([2]; first compound 0.02 µM) | relative viability ([2]; first compound 0.06325 µM) | relative viability ([2]; first compound 0.2 µM) | relative viability ([3]; first compound 0.08 µM) | relative viability ([3]; first compound 0.253 µM) | relative viability ([3]; first compound 0.8 µM) | relative viability ([3]; first compound 2.53 µM) | relative viability ([3]; first compound 8 µM) | relative viability ([4]; first compound 0.253 µM) | relative viability ([4]; first compound 0.8 µM) | relative viability ([4]; first compound 2.53 µM) | relative viability ([4]; first compound 8 µM) | relative viability ([4]; first compound 0.08 µM) |
| --- | --- | --- | --- | --- | --- | --- | --- | --- | --- | --- | --- | --- | --- | --- | --- | --- | --- | --- | --- | --- |
| EPLC-272H | 0.218 | 0.273 | 0.249 | 0.165 | 0.148 | 0.34 | 0.288 | 0.356 | 0.334 | 0.3 | 0.785 | 0.817 | 0.867 | 0.871 | 0.956 | 0.704 | 0.635 | 0.569 | 0.698 |  |
| H3255 | 0.921 | 0.963 | 0.803 | 0.828 | 0.551 | 0.724 | 0.469 | 0.623 | 0.609 | 0.488 | 0.249 | 0.235 | 0.268 | 0.283 | 0.247 | 1.05 | 0.924 | 0.872 | 1.19 | 0.81 |
| HARA | 0.271 | 0.463 | 0.59 | 0.438 | 0.27 | 0.576 | 0.525 | 0.602 | 0.322 | 0.264 | 0.636 | 0.501 | 0.651 | 0.802 | 0.681 | 0.963 | 0.766 | 0.709 | 0.633 | 0.85 |
| HCC-15 | 1.18 | 1.02 | 1.26 | 1.13 | 0.971 | 0.686 | 0.678 | 0.683 | 0.473 | 0.317 | 0.741 | 0.809 | 0.861 | 0.805 | 0.871 | 1.04 | 1.03 | 1.02 | 1.02 | 0.911 |
| HCC-78 | 0.627 | 0.712 | 0.553 | 0.484 | 0.242 | 0.439 | 0.411 | 0.376 | 0.396 | 0.332 |  | 0.643 | 0.645 | 1.2 | 0.86 | 0.631 | 0.578 | 0.568 | 0.644 | 0.575 |
| HCC-366 | 0.198 | 0.27 | 0.238 | 0.203 | 0.0362 | 0.924 | 0.863 | 0.889 | 0.469 | 0.556 | 1.01 | 1.01 | 0.903 | 0.986 | 1.06 | 0.878 | 0.889 | 0.852 | 0.924 | 0.926 |
| HCC-827 | 0.226 | 0.279 | 0.176 | 0.184 | 0.231 | 0.8 | 0.774 | 0.787 | 0.826 | 0.759 | 0.218 | 0.191 | 0.171 | 0.199 | 0.191 | 1.08 | 1.02 | 1.08 | 1.09 | 0.891 |
| HOP-62 | 0.513 | 0.403 | 0.657 | 0.261 | 0.198 | 0.986 | 0.881 | 0.728 | 0.611 | 0.492 | 0.878 | 1.22 | 1.08 | 1.03 | 0.942 | 1.13 | 1.03 | 1.08 | 1.13 | 1.06 |
| LC-2-ad | 0.812 | 0.816 | 0.86 | 0.71 | 0.593 | 0.938 | 0.844 | 0.769 | 0.582 | 0.546 | 0.949 | 0.957 | 0.92 | 1 | 0.921 | 0.941 | 0.831 | 0.814 | 0.993 | 0.84 |
| LCLC-97TM1 | 0.197 | 0.325 | 0.291 | 0.18 | 0.135 | 0.673 | 0.564 | 0.542 | 0.717 | 0.459 | 1.03 | 0.948 | 1.28 | 1.06 | 1.3 | 0.87 | 0.888 | 0.86 | 1.02 | 0.874 |
| LK-2 | 0.273 | 0.447 | 0.305 | 0.12 | 0.0726 | 0.176 | 0.205 | 0.213 | 0.207 | 0.159 | 0.777 | 0.837 | 1 | 1.05 | 1.03 | 1.34 | 1.18 | 1.08 | 1.68 | 1.28 |
| LOU-NH91 | 0.753 | 0.734 | 0.69 | 0.575 | 0.533 | 0.701 | 0.716 | 0.741 | 0.732 | 0.519 | 0.753 | 0.724 | 0.761 | 0.84 | 0.779 | 0.931 | 0.909 | 0.869 | 0.968 | 0.872 |
| LU99A | 0.305 | 0.247 | 0.263 | 0.166 | 0.127 | 0.294 | 0.327 | 0.332 | 0.314 | 0.276 | 0.915 | 0.965 | 0.931 | 1.04 | 1.01 | 0.987 | 0.815 | 0.78 | 0.751 |  |
| LXF-289 | 1.14 | 1.13 | 1.19 | 1.14 | 0.862 | 0.93 | 0.865 | 0.821 | 0.692 | 0.684 | 0.876 |  | 0.869 | 0.857 | 0.869 | 0.972 | 0.923 | 0.96 | 0.956 | 0.887 |
| NCI-H23 | 0.241 | 0.232 | 0.309 | 0.19 | 0.101 | 0.683 | 0.577 | 0.564 | 0.308 | 0.385 | 1.02 |  | 0.984 | 1.23 | 1.15 |  | 0.865 | 0.938 | 1.07 | 0.944 |
